In PMC9963398, “Discovery of New Quinolone-Based Diarylamides as Potent B-RAF^V600E/C-RAF Kinase Inhibitors Endowed with Promising In Vitro Anticancer Activity” (International Journal of Molecular Sciences, 2023):
Like-named read-outs stand apart in the source and are kept apart here.

Columns and labels:
B-RAF^V600E [1] = biological target: T1, B-RAF^V600E (Homo sapiens, UniProt P15056, V600E); assay: HotSpot kinase assay (RBC), B-RAF^V600E; assay type: biochemical; details: 10 µM ATP, 10-dose singlicate IC50 mode
T1 construct: purchased Reaction Biology Corporation (RBC), Kinase HotSpot service

C-RAF [2] = biological target: T2, C-RAF (Homo sapiens, UniProt P04049); assay: HotSpot kinase assay (RBC), C-RAF; details: IC50 C-RAF, 10 µM ATP, 10-dose singlicate IC50 mode
Source text: Reaction Biology Corporation (RBC) Kinase HotSpotSM service was utilized for cell-free biochemical kinase evaluation of the target compounds according to the reported assay protocol [46].

EGFR = test system: EGFR; set-up: method as in PMID 24588073; details: cited from earlier work
RAF = test system: RAF; set-up: method as in PMID 28368067; details: cited from earlier work
B-RAF = test system: B-RAF; set-up: method as in PMID 25461318; details: cited from earlier work
C-RAF [3] = biological target: T2, C-RAF; details: at 10 µM; cited from earlier work
B-RAF^V600E [4] = biological target: T1, B-RAF^V600E; details: cited from earlier work
Src = test system: Src; set-up: method as in PMID 25835317; details: cited from earlier work
B-RAF^WT = test system: B-RAF^WT; set-up: method as in PMID 25835317; details: cited from earlier work
B-RAF^V600E [5] = biological target: T1, B-RAF^V600E; set-up: method as in PMID 24900673, PMID 33780623; details: cited from earlier work

T1 sequence (P15056 whole entry V600E): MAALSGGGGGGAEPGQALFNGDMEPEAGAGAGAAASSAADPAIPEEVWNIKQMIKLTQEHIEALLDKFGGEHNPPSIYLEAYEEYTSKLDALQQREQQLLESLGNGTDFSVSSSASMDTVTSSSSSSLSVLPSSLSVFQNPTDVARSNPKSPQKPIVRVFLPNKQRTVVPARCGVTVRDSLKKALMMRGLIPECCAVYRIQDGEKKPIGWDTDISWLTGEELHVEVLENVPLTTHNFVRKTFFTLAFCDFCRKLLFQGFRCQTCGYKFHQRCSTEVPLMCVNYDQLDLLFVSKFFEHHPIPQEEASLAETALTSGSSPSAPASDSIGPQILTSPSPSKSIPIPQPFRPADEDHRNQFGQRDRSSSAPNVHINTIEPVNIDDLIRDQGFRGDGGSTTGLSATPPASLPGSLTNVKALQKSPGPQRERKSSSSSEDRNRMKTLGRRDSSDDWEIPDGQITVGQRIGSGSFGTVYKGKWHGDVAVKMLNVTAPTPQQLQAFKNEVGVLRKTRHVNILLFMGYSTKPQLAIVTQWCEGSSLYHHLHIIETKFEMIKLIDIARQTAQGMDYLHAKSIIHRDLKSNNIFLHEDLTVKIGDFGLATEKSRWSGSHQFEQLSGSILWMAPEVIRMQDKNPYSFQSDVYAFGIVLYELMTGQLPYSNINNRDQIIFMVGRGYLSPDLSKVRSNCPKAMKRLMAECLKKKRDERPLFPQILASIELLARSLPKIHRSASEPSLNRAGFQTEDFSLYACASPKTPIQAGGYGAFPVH
T2 sequence (P04049 whole entry): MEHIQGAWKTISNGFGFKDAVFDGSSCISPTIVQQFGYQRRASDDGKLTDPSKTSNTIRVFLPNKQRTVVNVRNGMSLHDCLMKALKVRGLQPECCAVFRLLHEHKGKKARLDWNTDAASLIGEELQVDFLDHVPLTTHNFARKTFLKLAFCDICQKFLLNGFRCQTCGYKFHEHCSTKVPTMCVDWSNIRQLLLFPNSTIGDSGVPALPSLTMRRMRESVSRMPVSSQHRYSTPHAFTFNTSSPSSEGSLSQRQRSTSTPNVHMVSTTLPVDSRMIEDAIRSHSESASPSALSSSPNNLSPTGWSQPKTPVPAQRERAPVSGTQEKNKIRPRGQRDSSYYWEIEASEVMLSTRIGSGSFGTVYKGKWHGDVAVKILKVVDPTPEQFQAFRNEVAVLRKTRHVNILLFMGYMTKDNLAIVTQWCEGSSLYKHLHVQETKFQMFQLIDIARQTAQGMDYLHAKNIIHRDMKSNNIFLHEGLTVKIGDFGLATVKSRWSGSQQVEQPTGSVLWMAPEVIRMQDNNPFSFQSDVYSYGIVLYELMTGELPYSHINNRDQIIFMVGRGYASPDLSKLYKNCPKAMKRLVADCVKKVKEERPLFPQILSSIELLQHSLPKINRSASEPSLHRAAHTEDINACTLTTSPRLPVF

In the case of `COc1ccc2nc(Nc3cccc(NC(=O)c4ccc(CN5CCCN(C)CC5)c(C(F)(F)F)c4)c3)ccc2c1` [Compound 16b, N-(3-((6-methoxyquinolin-2-yl)amino)phenyl)-4-((4-methyl-1,4-diazepan-1-yl)methyl)-3-(trifluoromethyl)benzamide], the IC50 (B-RAF^V600E [1]) is reported as 308 ± 14.9 nM and the IC50 (C-RAF [2]) is reported as 164 ± 6.05 nM.

In the case of `Cc1ccc(C(=O)Nc2ccc(CN3CCN(C)CC3)c(C(F)(F)F)c2)cc1NC(=O)c1cnc2[nH]ccc2c1` [Compound IV], the IC50 (EGFR) is listed as 8 nM.

For `Cc1ccc(C(=O)Nc2ccc(Cl)c(C(F)(F)F)c2)cc1NC(=O)C1(c2ccnc(NCCN3CCN(C)CC3)n2)CC1` [III], the “IC50 values, pan-RAF” value (RAF) is given as “two digits nanomolar”.

For `O=C(Nc1ccc(Cl)c(C(F)(F)F)c1)c1ccc(Cl)c(C(=O)Nc2ccc(-c3ncc[nH]3)nc2)c1` [II], the IC50 (B-RAF) is given as 531 nM.

For `COc1cc2cc(Oc3ccc(NC(=O)c4cc(C(F)(F)F)cc(C(F)(F)F)c4)cc3)c(C)nc2cc1OC` [VI], the “inhibition of C-RAF” value (C-RAF [3]) is given as 77%.

In the case of `CCn1nc(C#Cc2cc(C(=O)Nc3ccc(CN4CCN(C)CC4)c(C(F)(F)F)c3)ccc2C)c2c(N)ncnc21` [V], the IC50 (B-RAF^V600E [4]) is listed as 92 nM, the IC50 (Src) is listed as 0.9 nM and the IC50 (B-RAF^WT) is listed as 15 nM.

In the case of `CC(C)(C)c1nc(-c2cccc(NS(=O)(=O)c3c(F)cccc3F)c2F)c(-c2ccnc(N)n2)s1` [dabrafenib], the “selectivity against B-RAF^V600E than its wild type” value (B-RAF^V600E [5]) is listed as 500 fold.

For `CCCS(=O)(=O)Nc1ccc(F)c(C(=O)c2c[nH]c3ncc(-c4ccc(Cl)cc4)cc23)c1F` [vemurafenib], the “selectivity against B-RAF^V600E than its wild type” value (B-RAF^V600E [5]) is given as 100 fold.
